Structures can show the parent of a compound that is named as a salt.
target: human IDO1 (Homo sapiens, UniProt P14902); assay: Assessment of human IDO-1 inhibitory activity in HEK cells (human IDO1/HEK293 cells, kynurenine read-out with Ehrlich reagent, absorbance 490 nm); format: cell-based; set-up: expressed in transfected cells; settings: HEK Human IDO-1 cellular assay
Method: Exemplary compounds were tested for inhibition of IDO activity.
Assessment of Human IDO-1 Inhibitory Activity in HEK Cells
HEK293 cells were transfected with a pCDNA-based mammalian expression vector harboring human IDO1 cDNA (NM 002164.2) by electroporation. They were cultured in medium (DMEM with 10% FBS) containing 1 mg/ml G418 for two weeks. Clones of HEK293 cells that stably expressed human IDO1 protein were selected and expanded for IDO inhibition assay.
The human IDO1/HEK293 cells were seeded at 10,000 cells per 50 μL per well with RPMI/phenol red free media contains 10% FBS in a 384-well black wall clear bottom tissue culture plate (Matrix Technologies LLC) 100 nL of certain concentration of compound was then added to each well using ECHO liquid handling systems. The cells were incubated for 20 hours in 37° C. incubator with 5% CO2.
The compound treatments were stopped by adding trichloroacetic acid (Sigma-Aldrich) to a final concentration at 0.2%. The cell plate was further incubated at 50° C. for 30 minute. The equal volume supernatant (20 μL) and 0.2% (w/v) Ehrlich reagent (4-dimethylaminobenzaldehyde, Sigma-Aldrich) in glacial acetic acid were mixed in a new clear bottom 384-well plate. This plate was then incubated at room temperature for 30 minute. The absorbance at 490 nm was measured on Envision plate reader.
Compound IC50 values were calculated using the counts of 500 nM of a reference standard treatment as one hundred percent inhibition, and counts of no compound but DMSO treatment as zero percent inhibition.

Sequence of human IDO1 (P14902 whole entry): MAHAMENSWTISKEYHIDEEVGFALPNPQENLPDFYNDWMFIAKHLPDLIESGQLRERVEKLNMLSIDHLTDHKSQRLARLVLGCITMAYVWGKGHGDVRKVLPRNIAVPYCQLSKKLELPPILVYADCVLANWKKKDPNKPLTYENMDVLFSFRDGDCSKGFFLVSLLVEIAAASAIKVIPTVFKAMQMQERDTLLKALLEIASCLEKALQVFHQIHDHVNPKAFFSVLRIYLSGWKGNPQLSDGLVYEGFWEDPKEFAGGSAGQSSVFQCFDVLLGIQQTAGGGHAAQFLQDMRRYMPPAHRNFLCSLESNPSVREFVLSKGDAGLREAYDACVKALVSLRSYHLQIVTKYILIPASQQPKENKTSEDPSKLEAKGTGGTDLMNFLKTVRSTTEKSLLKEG

| Structure (SMILES) | IC50 [nM] |
| --- | --- |
| CC[C@H](CC(=O)O)c1ccc(N(CC(C)C)C2CCS(=O)(=O)CC2)c(NC(=O)Nc2ccc(OC)cc2F)c1 (single isomer, unassigned) [Example 211] | > 50 |
| Cc1ccc(CC(=O)Nc2cc(C(CC(=O)O)C(C)C)ccc2N(CC(C)C)CC(C)C)cc1 (racemic) [Example 1010] | < 5 |
| CCOc1ccc(NC(=O)Nc2cc(C(CC(=O)O)C3CC3)ccc2N(CC(C)C)C2CCOCC2)cc1 (single isomer, unassigned) [Example 1205 Enantiomer 1, 3-Cyclopropyl-3-(3-(3-(4-ethoxyphenyl)ureido)-4-(isobutyl(tetrahydro-2H-pyran-4-yl)amino)phenyl)propanoic acid] | < 50 |
| CC[C@@H](CC(=O)O)c1ccc(N2CCOC[C@@H]2C(C)C)c(NC(=O)Nc2ccc(OC)cc2F)c1 (single isomer, unassigned) [Example 76] | > 50 |
| CCN(c1ccc(C(CC(=O)O)c2ccccc2)cc1Nc1ccc(OC(F)F)cc1)C1CCOCC1 (single isomer, unassigned) [Example 583, 3-(3-((4-(difluoromethoxy)phenyl)amino)-4-(ethyl(tetrahydro-2H-pyran-4-yl)amino)phenyl)-3-phenylpropanoic acid] | < 50 |
| CCN(c1ccc(C(CC(=O)O)c2ccccc2)cc1Nc1ccc(C#N)cc1)C1CCOCC1 (single isomer, unassigned) [Example 581, 3-(3-((4-cyanophenyl)amino)-4-(ethyl(tetrahydro-2H-pyran-4-yl)amino)phenyl)-3-phenylpropanoic acid] | < 5 |
| CC[C@H](CC(=O)O)c1ccc(N(CC)C2CCOCC2)c(NC(=O)Nc2ccc(F)cc2)c1 (single isomer, unassigned) [Example 527] | < 50 |
| COCC(CC(=O)O)c1ccc(N(CC(C)C)CC(C)C)c(NC(=O)Nc2cncnc2)c1 (racemic) [Example 996, (+/−)-3-(4-(Diisobutylamino)-3-(3-(pyrimidin-5-yl)ureido)phenyl)-4-methoxybutanoic acid] | > 50 |
| COCC(CC(=O)O)c1ccc(N(CC(C)C)C2CCOCC2)c(NC(=O)Nc2ccc(OC)cc2F)c1 (single isomer, unassigned) [Example 1214, 3-(3-(3-(2-Fluoro-4-methoxyphenyl)ureido)-4-(isobutyl(tetrahydro-2H-pyran-4-yl)amino)phenyl)-4-methoxybutanoic acid] | > 50 |
| CCOc1ccc(Nc2cc([C@H](CC)CC(=O)O)ccc2N(CC)C2CCOCC2)nc1 (single isomer, unassigned) [Example 522] | < 5 |
| CCC(CC(=O)O)c1ccc(N2CCC[C@H]2C(C)(C)F)c(Nc2ccc3nc(C)sc3c2)c1 (single isomer, unassigned) [Example 789] | > 50 |
| CCN(c1ccc([C@H](COC)CC(=O)O)cc1NC(=O)Nc1ccc(OC)nc1)C1CCOCC1 (single isomer, unassigned) [Example 437] | > 50 |
| CC[C@@H](CC(=O)O)c1ccc(N(CC)C2CCOCC2)c(Nc2cnc(OCC3CC3)nc2)c1 (single isomer, unassigned) [Example 480] | < 5 |
| Cc1ccc(NC(=O)Nc2cc(C(C)CC(=O)O)c(F)cc2N(CC(C)C)C2CCCCC2)cc1 (single isomer, unassigned) [Example 956, 3-(4-(Cyclohexyl(isobutyl)amino)-2-fluoro-5-(3-(p-tolyl)ureido)phenyl)butanoic acid] | < 5 |
| COc1ncc(Nc2cc(C(C)CC(=O)O)ccc2N(CC(C)(C)O)C2CCOCC2)cn1 (single isomer, unassigned) [Example 192, 3-(4-((2-hydroxy-2-methylpropyl)(tetrahydro-2H-pyran-4-yl)amino)-3-((2-methoxypyrimidin-5-yl)amino)phenyl)butanoic acid] | > 50 |
| CC[C@H](CC(=O)O)c1ccc(N(CC(C)(C)O)C2CCOCC2)c(Nc2ccc(Cl)c(OCC(F)(F)F)c2)c1 (single isomer, unassigned) [Example 205] | < 50 |
| CCC(CC(=O)O)c1ccc(N2CCOC[C@H]2C(C)C)c(Nc2ccc3c(c2)OC(F)(F)O3)c1 (single isomer, unassigned) [Example 893] | > 50 |
| CCC(CC(=O)O)c1cc(NC(=O)Nc2cnc(OC)nc2)c(N(CC(C)C)CC(C)C)cc1F (single isomer, unassigned) [Example 1141, 3-(4-(Diisobutylamino)-2-fluoro-5-(3-(2-methoxypyrimidin-5-yl)ureido)phenyl)pentanoic acid] | < 5 |
| CCOc1ccc(Nc2cc(C(CC)CC(=O)O)ccc2N(CC(C)C)C2CCCCC2)cc1 (single isomer, unassigned) [Example 313, 3-(4-(cyclohexyl(isobutyl)amino)-3-((4-ethoxyphenyl)amino)phenyl)pentanoic acid] | < 5 |

| Structure (SMILES) | IC50 [nM] |
| --- | --- |
| CCC(CC(=O)O)c1ccc(N2CCC[C@H]2C(C)(C)O)c(Nc2ccc3c(c2)OC(F)(F)O3)c1 (single isomer, unassigned) [Example 837] | > 50 |
| CCCN(CC1CC1)c1ccc(C(CC)CC(=O)O)cc1Nc1ccc2nc(C)sc2c1 (single isomer, unassigned) [Example 658, 3-(4-((cyclopropylmethyl) (propyl)amino)-3-((2-methylbenzo[d]thiazol-6-yl)amino)phenyl)pentanoic acid] | < 50 |
| COCC(CC(=O)O)c1ccc(N(CC(C)C)CC(C)C)c(NC(=O)Nc2ccc(C)cc2)c1 (racemic) [Example 992, (+/−)-3-(4-(Diisobutylamino)-3-(3-(p-tolyl)ureido)phenyl)-4-methoxybutanoic acid] | < 50 |
| CC[C@@H](CC(=O)O)c1ccc(N(CC)C2CCOCC2)c(Nc2ccc(C#N)cc2)c1 (single isomer, unassigned) [Example 458] | < 5 |
| CCOc1ncc(Nc2cc([C@H](CC)CC(=O)O)ccc2N(CC2CC2)CC(C)(C)O)cn1 (single isomer, unassigned) [Example 274] | < 50 |
| CCCN(CC1CC1)c1ccc(C(CC)CC(=O)O)cc1Nc1ccc(Cl)cc1 (single isomer, unassigned) [Example 656 E1, 3-(3-((4-Chlorophenyl)amino)-4-((cyclopropylmethyl)(propyl)amino)phenyl)pentanoic acid] | < 5 |
| CCN(c1ccc(C(CC(=O)O)c2ccccc2)cc1NC(=O)Nc1ccc(Cl)cc1F)C1CCOCC1 (single isomer, unassigned) [Example 585, 3-(3-(3-(4-chloro-2-fluorophenyl)ureido)-4-(ethyl (tetrahydro-2H-pyran-4-yl)amino)phenyl)-3-phenylpropanoic acid] | < 50 |
| CCC(CC(=O)O)c1cc(F)c(N(CC(C)C)CC(C)C)c(NC(=O)Nc2cc(C(C)(C)C)on2)c1 (racemic) [Example 971, (+/−)-3-(3-(3-(5-(tert-Butyl)isoxazol-3-yl)ureido)-4-(diisobutylamino)-5-fluorophenyl)pentanoic acid, TFA] | > 50 |
| CCOc1ncc(Nc2cc(C(CC)CC(=O)O)ccc2N2CCC[C@H]2C(C)(C)O)cn1 (single isomer, unassigned) [Example 839] | > 50 |
| CCCN(c1ccc([C@@H](CC)CC(=O)O)cc1Nc1ccc(C#N)cc1)C1CCOCC1 (single isomer, unassigned) [Example 536] | < 5 |
| COC(Cc1ccc(N(CC(C)C)C2CCCCC2)c(NC(=O)Nc2ccc(Cl)cc2F)c1)C(=O)O (stereo not shown) [Example 1012, 3-(3-(3-(4-Chloro-2-fluorophenyl)ureido)-4-(cyclohexyl(isobutyl)amino)phenyl)-2-methoxypropanoic acid] | < 50 |
| CC(CC(=O)O)c1ccc(N2CCC[C@H]2C(C)(C)O)c(Nc2ccc(Cl)cc2)c1 (single isomer, unassigned) [Example 799] | > 50 |
| CCC(CC(=O)O)c1cc(F)c(N(CC(C)C)CC(C)C)c(Nc2ccc(Cl)c(OCC(F)(F)F)c2)c1 (single isomer, unassigned) [Example 102, 3-(3-((4-chloro-3-(2,2,2-trifluoroethoxy)phenyl)amino)-4-(diisobutylamino)-5-fluorophenyl)pentanoic acid] | < 5 |
| CC[C@@H](CC(=O)O)c1ccc(N(CC)C2CCOCC2)c(Nc2cnc(OC)nc2)c1 (single isomer, unassigned) [Example 479] | < 5 |
| CCC(CC(=O)O)c1ccc(N2CCOC[C@H]2C(C)C)c(Nc2cnc(OC)nc2)c1 (single isomer, unassigned) [Example 906] | < 50 |
| CC(C)CN(c1ccc(C(C)CC(=O)O)cc1NC(=O)Nc1cncnc1)C1CCOCC1 (single isomer, unassigned) [Example 961, 3-(4-(isobutyl(tetrahydro-2H-pyran-4-yl)amino)-3-(3-(pyrimidin-5-yl)ureido)phenyl)butanoic acid] | > 50 |
| CCOc1ccc(NC(=O)Nc2cc([C@@H](CC)CC(=O)O)ccc2N(CC(C)C)C2CCS(=O)(=O)CC2)cc1 (single isomer, unassigned) [Example 217] | > 50 |
| CCOc1ncc(Nc2cc(C(C)CC(=O)O)ccc2N2CCC[C@H]2C(C)(C)O)cn1 (single isomer, unassigned) [Example 800] | > 50 |

From US9790169B2, “IDO inhibitors” (BRISTOL-MYERS SQUIBB COMPANY, priority 2015, dated 2017)
